Experimental data taken from publication PMC12867150, “A fungi-derived cyclic peptide enhances Th9-mediated antitumor immunity by targeting ZAP70 and SREBP1” (The Journal of Clinical Investigation, 2025).
Several values for one entry are separate records, joined by “and”; a condition that tells them apart may be missing. Equal values may be shown once.

Legend:
[1] = system: Th9 signature genes (Irf4, Batf3, Batf, and Il9); assay: Quantitative RT-PCR of Th9 signature genes (Figure 1J); type: cell-based, mouse
Experimental: Total RNA was extracted from T cells using RNAex Pro Reagent (AG, catalog AG21102) following the manufacturer’s instructions. First-strand complementary DNA (cDNA) was synthesized using the Hifair III 1st Strand cDNA Synthesis SuperMix (YEASEN, catalog 11137ES10). Quantitative real-time PCR (qRT-PCR) was conducted on a QuantStudio 3 Real-Time PCR System (Thermo Fisher Scientific) using ChamQ Universal SYBR qPCR Master Mix (Vazyme, catalog Q711-02) and gene-specific primers (Tsingke Biotech).
For normalization, mouse samples were referenced to Gapdh or Actb, and human samples were normalized to GAPDH. Relative gene expression was calculated using the ΔΔCt method. Primer sequences are listed in Supplemental Table 5.

[2] = system: EpA-binding proteins in Th9 cell lysates; assay: EpA-biotin pulldown and LC-MS/MS (Figure 5A, S7A-B); design: species or system mouse; conditions: result in words
Experimental: Cell lysates from Th9 cells were incubated overnight at 4 °C with EpA-biotin or biotin alone (control). Streptavidin-conjugated magnetic beads were added to capture biotinylated compounds and their interacting proteins. After washing, the bead-bound proteins were resolved by SDS-PAGE and visualized by silver staining. Distinct protein bands were excised, subjected to in-gel enzymatic digestion, and analyzed via liquid chromatography–tandem mass spectrometry (LC-MS/MS) to identify putative EpA-binding proteins.

[3] = system: Raji-luciferase tumor; assay: Raji-luciferase xenograft, bioluminescence tumor radiance (Figure 8J-K); type: in vivo, NSG mice; conditions: EpA-treated human Th9 CAR T cells 2 × 10^6 i.v.; n = 5; result in words
Source text: Representative plots (A) and quantification (B) (n = 4). (C) Quantitative PCR analysis of IL9, IRF4, and SPI1 mRNA expression in human Th9 cells (n = 3). (D) Flow-cytometric analysis of mitochondrial membrane potential in human Th9 cells (n = 3). (E) Luciferase-based assay analysis of intracellular ATP levels in human Th9 cells (n = 5). (F) Flow-cytometric analysis of phosphorylated ZAP70 in human Th9 cells (n = 3). (G) Flow-cytometric analysis of TNF-α expression in human Th9 cells (n = 4). (H) Cytotoxicity assay of EpA-treated or control CD19 CAR Th9 cells against Raji lymphoma target cells at indicated effector-to-target (E/T) ratios (n = 3). (I) Schematic diagram of the in vivo Raji-luciferase xenograft model in NSG mice receiving control or EpA-treated human Th9 CAR T cells. (J and K) Representative bioluminescence imaging (J) and quantification of tumor radiance (K) in NSG mice at indicated time points after adoptive transfer. […] Statistical significance was determined using 2-tailed unpaired Student’s t test (B–H), 2-way ANOVA followed by Šidák’s post hoc test (K), and log-rank test (L). […]
For xenograft models, M-NSG mice were intravenously inoculated with 1 × 10^6 Raji-CD19 tumor cells. […] Tumor progression and immune cell infiltration were subsequently monitored according to experimental endpoints.

[4] = system: MEK1/2 and ERK1/2; assay: Immunoblot of total and phosphorylated MEK1/2 and ERK1/2 (Figure 5G); type: cell-based, mouse; conditions: result in words
Experimental: Detailed lysis conditions, SDS–PAGE and transfer procedures, primary/secondary antibodies (including clones and catalog numbers), molecular weight markers, ECL detection, and ImageJ (NIH) quantification are described in Supplemental Methods.
MH9A4, Biolegend, Cat. No. 507605, PE/Cy7, clone MH9A4, Biolegend, Cat. No. […]
clone Mab11, Biolegend, Cat. No. 502908), Perforin (APC, clone dG9, Biolegend, Cat.
Flow cytometric acquisition was performed using a BD Fortessa or Cytek Aurora cytometer. Data were analyzed with FlowJo software (v10.8.1 or newer). Fluorescence compensation, isotype-matched controls, and fluorescence-minus-one (FMO) controls were applied as appropriate for multicolor panel validation.
Cells were washed twice with PBS and lysed in 1 × lysis buffer (NCM, Cat. No.
WB3100) supplemented with a protease inhibitor cocktail (Solarbio, Cat. No. P1260).
Protein lysates were separated by SDS-polyacrylamide gel electrophoresis (SDS-PA G E ; YEASEN, Cat. No. 20325ES62) and transferred to PVDF membranes for […]
Membranes were probed with the following primary antibodies: ERK1/2 (clone […]
BioLegend, Cat. No. 369502), MEK1/2 (clone L38C12, Cell Signaling Technology, Cat.
No. 4694S), phospho -MEK1/2 (clone 41G9, Cell Signaling Technology, Cat. No. […]
(Proteintech, Cat. No. 10745 -1-AP), Total Akt (Cell Signaling Technolo gy, Cat. No. […]

[5] = EpA-treated Th9, ΔΔCt, individual replicates, n = 3

Substance: anteiso-C15 Leu7 surfactin [EpA]
- Batf3 relative mRNA expression [1, 5]: 1.532 and 2.109 and 2.3014
- Batf relative mRNA expression [1, 5]: 1.713 and 1.736 and 1.548
- Il9 relative mRNA expression [1, 5]: 23.4757 and 53.1262 and 48.3738
- Irf4 relative mRNA expression [1, 5]: 1.345 and 1.289 and 1.126
- Th9-associated transcription factors and effector cytokines ([1]; result in words): significantly upregulated
- EpA pulldown, ZAP70 [2]: top candidate
- tumor burden [3]: markedly reduced tumor burden
- MEK and ERK phosphorylation [4]: increased phosphorylation of MEK and ERK
